Results reported in PubChem BioAssay (NCI).
Where “and” joins values, the source holds several entries; their conditions need not be identical. Equal entries are not always repeated.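 Cultured in 96-well plates, cells were exposed to test compound for 48 hours across five concentrations. GI50 = concentration required for 50% inhibition of growth. TGI: concentration producing complete growth inhibition.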

Assays:
Experiment in all cases: NCI-60 cell line screen, 48 h
[1] = system: COLO 205 colon
[2] = system: HS 578T breast
[3] = system: LOX IMVI melanoma
[4] = system: M14 melanoma
[5] = system: MDA-MB-435
[6] = system: NCI-H226 lung
[7] = system: NCI-H522 lung
[8] = system: OVCAR-3 ovarian
[9] = system: OVCAR-5 ovarian
[10] = system: SK-MEL-5 melanoma
[11] = system: SW-620 colon

Row | Compound | TGI [1] | TGI [2] [µM] | TGI [3] | TGI [4] | TGI [5] | TGI [6] | TGI [7] [µM] | TGI [8] | TGI [9] | TGI [10] | TGI [11] [µM] | GI50 [1] [µM] | GI50 [3] [µM] | GI50 [4] [µM] | GI50 [6] [µM] | GI50 [8] [µM] | GI50 [9] [µM] | GI50 [10] [µM]
1 | CC(=O)OC1COC(Nc2nc(N)n(C)c(=O)c2N=O)C(OC(C)=O)C1OC(C)=O (stereo not drawn) | > 10 µM | > 10 | > 10 µM | > 10 µM | > 10 µM | > 10 µM | > 10 | > 10 µM | > 10 µM | > 10 µM | > 10 |  |  |  |  |  |  | 
2 | O=C1CC2CCC(C1)S2=O (stereo not drawn) | > 100 µM | > 100 | > 100 µM | > 100 µM | > 100 µM | > 100 µM | > 100 | > 100 µM |  | > 100 µM | > 100 |  |  |  |  |  |  | 
3 | CC1(C)CCc2c(c(N=Nc3ccc(F)cc3)c3ccccc3c2O)O1 | > 100 µM | > 100 | 47.3 µM | 39.9 µM | 32 µM | > 100 µM | > 100 | 70.8 µM | > 100 µM | 21.1 µM | > 100 |  |  |  |  |  |  | 
4 | CC1=C(C)C(=O)C(C2=CC(=O)C=CC2=O)=C(C2=CC(=O)C=CC2=O)C1=O | > 100 µM | > 100 | > 96.1 µM | > 100 µM | > 83.7 µM | > 100 µM | 64.7 |  | > 100 µM | 46.2 µM | > 76.2 |  |  |  |  |  |  | 
5 | Oc1ccc(Cl)cc1C1=NC(/N=C\c2ccccc2)=NC(c2ccccc2)C1 (stereo not drawn) | > 100 µM | > 100 |  | > 100 µM | > 100 µM | > 100 µM | > 100 | > 100 µM | > 100 µM | 61.2 µM | > 100 |  |  |  |  |  |  | 
6 | CCCCCCCCCCCCCC(=O)N(CCCCCCCCC)CC(O)C(O)C(OC1OC(CO)C(O)C(O)C1O)C(O)CO (stereo not drawn) | 37.3 µM | 51.9 | 39.6 µM | 40.8 µM | 34.6 µM | 34.3 µM | 44.4 | 53.1 µM | > 100 µM | 34.7 µM | 36.5 |  |  |  |  |  |  | 
7 | CC(=O)/C(=C/N1CCNC1=S)C(=O)Nc1ccccc1C | > 100 µM | > 100 | > 100 µM | > 100 µM | > 100 µM | > 100 µM | > 100 | > 100 µM | > 100 µM | > 100 µM | > 100 |  |  |  |  |  |  | 
8 | C=C(c1ccccc1)c1ccccc1-c1cc(-c2ccccc2)cc(-c2ccccc2)n1 |  | > 100 | > 100 µM | > 100 µM | > 100 µM | > 100 µM | > 100 | > 100 µM | > 100 µM | > 100 µM | > 100 |  |  |  |  |  |  | 
9 | CN(Cc1cc(Cl)c(Cl)cc1NC(=O)CN)[C@H]1CCCC[C@@H]1N1CCCC1 | 33.9 µM | 58.5 | 32.3 µM | 33.2 µM | 32.9 µM | > 100 µM | 40.4 | > 100 µM | > 100 µM | 32.1 µM | > 100 |  |  |  |  |  |  | 
10 | O=C(O)CCC(NC(=O)c1ccc(Nc2nc3cc(C(F)(F)F)ccc3nc2C(=O)O)cc1)C(=O)O (stereo not drawn) | > 100 µM | > 100 | > 100 µM | > 100 µM | > 100 µM | > 100 µM | > 100 | > 100 µM | > 100 µM | > 100 µM | > 100 |  |  |  |  |  |  | 
11 | O=[N+]([O-])c1cccc2nccc(NCCCO)c12 | 15.8 µM | 43.3 | 31.7 µM | 25.6 µM | 26.9 µM | 50.6 µM | 20 | 35.3 µM | 35.6 µM | 14.4 µM | 27.6 |  |  |  |  |  |  | 
12 | C=C(C(=O)O[C@H]1C(=O)C2=C(C)CCC3C(=C)C(=O)O[C@@H]3C2[C@]1(C)O)C1CC[C@]2(C)CCCC(=C)[C@H]2C1 (stereo partly drawn) | 23 µM and 34.8 µM | 15.8 | 11.5 µM and 15.7 µM | 12.3 µM and 20.3 µM | 10.1 µM and 8.5 µM | 16 µM and 36.6 µM | 8.55 | 9.84 µM and 9.06 µM | 25 µM and 41 µM | 15.8 µM and 29.7 µM | 21.2 | 13.7 | 5.26 | 5.74 | 6.81 | 3.39 | 9.64 | 8.45
13 | [N-]=[N+]=C(C(=O)N1CCCC1=O)S(=O)(=O)c1ccccc1 | > 100 µM | > 100 | > 100 µM | > 100 µM | > 100 µM |  | > 100 | > 100 µM |  | > 100 µM | > 100 |  |  |  |  |  |  | 
14 | Cc1sc2nc3n(c(=O)c2c1C)N=CN(c1ccc(F)cc1)C3 | > 100 µM | 79.2 | > 100 µM | > 100 µM | > 100 µM | > 100 µM | > 100 | > 100 µM | > 100 µM | > 100 µM | > 100 |  |  |  |  |  |  | 
15 | Cc1cc(S(=O)(=O)/N=C(/NN)NNc2cccc(C(F)(F)F)n2)c(S)cc1Cl | 38.5 µM | 54.4 | 39.7 µM | 39.9 µM | 40.6 µM | 46 µM | 60.4 | 62.7 µM | 29.5 µM | 37.9 µM | 39.3 |  |  |  |  |  |  | 
16 | COc1cc(Br)c(CC2C3=C(CCN2C(=O)C2CCC2)CC(=O)CC3)cc1O (stereo not drawn) | 40 µM | 85.5 | > 100 µM | > 100 µM | 35.7 µM | > 100 µM | 34.3 | 57 µM | > 100 µM | > 100 µM | > 100 |  |  |  |  |  |  | 
17 | COc1ccc(C(=O)/C=C/c2cc(O)c(O)cc2F)c(OC)c1 | 29.8 µM | > 65.3 | 26.9 µM | 23.9 µM | > 100 µM | 55 µM | 3.19 | 2.65 µM | 33.5 µM | 20.9 µM | > 55.3 |  |  |  |  |  |  | 
18 | O=[N+]([O-])C(Cl)=C/C(=C(\Cl)SCc1ccccc1)[N+](=O)[O-] | 32.3 µM | > 100 | 33.6 µM | 53.8 µM | 36.3 µM | 75.9 µM | 46.2 | 32 µM | 52.4 µM | 47.3 µM | 59.3 |  |  |  |  |  |  | 
19 | C=CCC(C(=O)Nc1cccc2[nH]cnc12)C(=O)OCC (stereo not drawn) |  | > 100 | > 100 µM | > 100 µM | > 100 µM | > 100 µM | > 100 | > 100 µM | > 100 µM |  | > 100 |  |  |  |  |  |  | 
20 | CNc1ncnc2c1cnn2Cc1cn(COCC(O)CO)nn1 (stereo not drawn) | > 100 µM | 20.3 | > 100 µM | > 100 µM | > 100 µM | > 100 µM |  | > 100 µM | > 100 µM | > 100 µM | > 100 |  |  |  |  |  |  | 
